From article PMC8359613, “An essential vesicular-trafficking phospholipase mediates neutral lipid synthesis and contributes to hemozoin formation in Plasmodium falciparum” (BMC Biology, 2021)

Target: T1, PfLPL1 (Plasmodium falciparum, UniProt Q8IK69)
T1 construct: gene PF3D7_1476700; full length 1-353, expressed from pETM-41 in E. coli BL21(DE3); Ni-NTA then amylose resin (implies His-MBP fusion)
T1 sequence (Q8IK69 1-353): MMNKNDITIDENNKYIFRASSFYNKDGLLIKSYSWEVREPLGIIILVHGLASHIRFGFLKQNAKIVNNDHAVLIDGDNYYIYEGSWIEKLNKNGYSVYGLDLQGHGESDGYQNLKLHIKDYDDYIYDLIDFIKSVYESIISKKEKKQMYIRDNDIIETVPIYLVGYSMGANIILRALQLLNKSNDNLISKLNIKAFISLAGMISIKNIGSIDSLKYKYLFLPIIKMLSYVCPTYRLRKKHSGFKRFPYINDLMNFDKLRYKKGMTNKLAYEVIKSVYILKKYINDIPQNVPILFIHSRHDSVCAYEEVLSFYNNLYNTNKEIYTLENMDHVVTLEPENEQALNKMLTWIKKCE
Assay: coupled Amplex Red fluorescence assay (GPC phosphodiesterase, choline oxidase, HRP)
Format: biochemical
Conditions: substrate 0-70 µM; Tris-HCl, CaCl2, pH 8.0; room temperature; acyl chain of LPC not stated; reaction mix lists 0.5 mM lecithin

Substance LPC has a Km of 61.2 ± 5.9 µM.
